Here are results for one compound from patent publication US20260083676A1, “SPRAY-DRIED AMORPHOUS SOLID DISPERSIONS AND METHOD FOR PREPARATION” (Merck Patent GMbH, priority 2022, published 2026).

Data set [1] can be described thus: X-ray powder diffraction and DSC of spray-dried products. The format is physicochemical. Conditions: raw material and spray dried dispersion with PVA 3-82; FIG. 24 to 26. As for the experimental part:
Diffractograms of powders were measured using an Miniflex 600 X-ray diffractometer (Rigaku, Japan) with CuKα radiation (λ=1.54 A). Samples were scanned in reflectance mode from 3° to 50° 2θ (deg), with a scan speed of 10° 2θ (deg)/min and a step size of 0.020° 2θ (deg) and results are shown in FIG. 2. The acceleration voltage and current are 45 kV and 15 mA.
The DSC thermograms of the samples as shown in FIG. 3 were collected using a DSC 3 (METTLER, U.S.) under a nitrogen gas flow of 50 ml/min. A total of 2-5 mg sample powder was filled into an aluminum Tzero pan (40 μL) and sealed with an aluminum Tzero lid. The sample was analyzed at a heating rate of 5° C./min from −25° C. to 230° C.
Spray-drying of ASDs has been prepared as described in Example 2, XRD measurements have been performed as described in Example 1.
Diffractograms of powders were measured using an Miniflex 600 X-ray diffractometer (Rigaku, Japan) with CuKα radiation (λ=1.54 A). Samples were scanned in reflectance mode from 3° to 50° 2θ (deg), with a scan speed of 10° 2θ (deg)/min and a step size of 0.020° 2θ (deg). The acceleration voltage and current are 45 kV and 15 mA.

A short description of data set [2]: Dissolution measurement of PROTAC ARV-110 ASD in phosphate buffer pH 6.8. The format is physicochemical. The note with it: phosphate buffer pH 6.8, room temperature, 0.2 mg/ml, 120 minutes; FIG. 23. As for the experimental part: For PROTAC ARV-110, the dissolution of the samples was determined at room temperature in phosphate buffer pH 6.8 as dissolution medium. 5 mg of bulk drug or spray dried powder samples equivalent to 5 mg of drug were weighted and placed into a 100 ml of Erlenmeyer flask, subsequently a magnetic stirring bar was added to the Erlenmeyer flask and stirred at 200 rpm, then 25 ml of dissolution medium was added. (concentration: 0.2 mg/ml)
At predetermined time points (5, 10, 20, 40, 60, 90, 120 min), 500 μl of sample were withdrawn from the dissolution vessels and immediately replaced by 500 μl of fresh dissolution medium. The dissolution samples were then filtered through a 0.45 μm filter. The sample is diluted with Eluent B (1:1). Finally, the samples were analyzed towards drug content using HPLC.
A C8-Column (Waters XBridge Column C8, 4.6×50 mm, 3.5 μm) column was used for the quantification.
The eluents are composed as follows: Eluent A: 0.1% formic acid in water; Eluent B: 0.1% formic acid in acetonitrile. Method: linear gradient of 10% to 90% Eluent B in 2 minutes at 1.7 ml/min flow rate.

As to `N#Cc1ccc(O[C@H]2CC[C@H](NC(=O)c3ccc(N4CCC(CN5CCN(c6cc7c(cc6F)C(=O)N(C6CCC(=O)NC6=O)C7=O)CC5)CC4)nn3)CC2)cc1Cl` (some centres unmarked) [ARV-110], the “solid state (XRD)” value in data set [1] is “crystalline”. Also, the dissolution entry in data set [2] was “neither the raw PROTAC 1, PROTAC 2 nor ARV110 show any measurable dissolution”.
